The values below come from patent publication US20140031388A1, “AKT INACTIVATION BY TOCOPHERYL DERIVATIVES” (priority 2012, published 2014).

In test [1] the test system is LNCaP-abl cells. Description: MTT viability assay, LNCaP-abl. To be noted: Homo sapiens; LNCaP-abl cells (comparable to parental LNCaP); read-out: IC50, antiproliferative effect. The class given is cell-based. On the procedure: (§1) The prostate cancer cell lines, LNCaP and PC-3, were purchased from American Type Culture Collection (Manassas, Va.) and maintained in RPMI 1640 medium containing 10% heat-inactivated fetal bovine serum at 37° C. in a humidified incubator containing 5% CO2. The LNCaP-abl cells were a generous gift from Dr. Qianben Wang (The Ohio State University). Normal prostate epithelial cells were purchased from Lonza (Walkersville, Md.) and were cultured in the vendor-recommended defined prostate epithelial cell growth medium. For experiments, LNCaP cells were plated on poly-D-lysine-coated culture flasks at a density of 12,000 cells per cm^2 surface area for 24 hours, followed by treatment with test agents in serum-free RPMI 1640 medium. The α- and γ-tocopherols were purchased from Sigma-Aldrich (St. Louis, Mo.). The tocopherol derivatives, α- and γ-VE5, were synthesized by the inventors.
LNCaP cells were plated into poly-D-lysine-coated 96-well plates and PC-3 and LNCaP-abl cells into uncoated plates at the density of 5,000 cells per well in the presence of 10% FBS. […] The medium was then removed from each well and replaced with DMSO to dissolve the reduced MTT dye for subsequent colorimetric measurement of absorbance at 595 nm. Cell viabilities are calculated as percentages of that in the corresponding vehicle-treated control group.

In test [2] the target is T1, Akt1 Y38G PH domain (Homo sapiens, UniProt P31749, Y38G).
T1 construct: made in house
T1 sequence (P31749 5-108 Y38G limits assumed): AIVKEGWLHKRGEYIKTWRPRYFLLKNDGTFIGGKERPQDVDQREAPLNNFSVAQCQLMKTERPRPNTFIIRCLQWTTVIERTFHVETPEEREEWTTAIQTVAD
As to the kind of experiment: Surface plasmon resonance binding, Akt-Y38G PH domain mutant. To be noted: SPR, P < 0.05 vs. Akt. The text has this:
(§2) The cDNA fragments corresponding to the putative PH domain sequences of PHLPP1 (+115 to +372), PDK1 (+1225 to +1671), Akt1 (+1 to +447) and ILK (+538 to +646) were PCR-amplified using the plasmids pcDNA-HA-PHLPP1, pWZL-Neo-Myr-FLAG-PDPK1, pcDNA-HA-PKB-T308D-S473D, and pCMV-SPORT-ILK (Addgene) as templates. The PCR products were then cloned into EcoRI/XhoI sites of the pGEX-4T1 expression vector (GE Healthcare Life Sciences) to generate four constructs (pGEX-4T1-PHLPP1, pGEX-4T1-PDPK1, pGEX-4T1-AKT1, pGEX-4T1-ILK) for the expression of GST-PH domain fusion proteins. The mutated Akt1 Y38G PH domain was generated from pGEX-4T1-AKT1 by site-directed mutagenesis using the QuikChange II XL Site-Directed Mutagenesis Kit (Agilent Technologies). The expression and purification of GST-PH domain fusion proteins were performed essentially as described previously. Thomas et al., Curr Biol 12, 1256 (2002). The purified PH domains were analyzed by SDS-PAGE using an overloaded gel with purities were estimated to be >95% using ImageJ software.
Binding experiments were performed using a Biacore T100 system (GE Healthcare, Piscataway, N.J.). The GST-PH domain fusion proteins were immobilized on a CM5 S Sensorchip using Biacore's Amine Coupling Kit to a level of 17,000 response units. […] Data were analyzed using Biacore T100 Evaluation Software.
On the technique in general: SPR reads the build-up and loss of mass on a sensor chip optically.

Test [3] concerns LNCaP and PC-3 cells. Description: MTT viability assay, one value stated for both prostate cancer lines. The class given is cell-based. To be noted: for IC50: Homo sapiens, MTT, serum-free medium, one value for LNCaP and PC-3, read-out: IC50, antiproliferative effect / viability; for potency relative to parent tocopherol: Ser-473-Akt dephosphorylation and viability of prostate cancer cells. The protocol: as §1
LNCaP cells were plated into poly-D-lysine-coated 96-well plates and PC-3 and LNCaP-abl cells into uncoated plates at the density of 5,000 cells per well in the presence of 10% FBS. Normal prostate epithelial cells were plated into uncoated plates at a density of 8,000 cells per well. Exposure to test agents in serum-free medium was initiated 24 hours later. After 24 hours of treatment, cells were incubated with MTT [3-(4,5-dimethylthiazol-2-yl)-2,5-diphenyl-2H-tetrazolium bromide] (TCI America; 0.5 mg/ml, final concentration) for an additional 2 hours. The medium was then removed from each well and replaced with DMSO to dissolve the reduced MTT dye for subsequent colorimetric measurement of absorbance at 595 nm. Cell viabilities are calculated as percentages of that in the corresponding vehicle-treated control group.
A general note: Tetrazolium assays rely on reduction of a dye to a coloured formazan, in cell work by metabolically active cells.

Test [4] concerns phosphorylation of Ser473 in Akt. Description: Western blot of Akt phosphorylation at Ser473. The format is cell-based. To be noted: LNCaP and PC-3 cells, Thr308 not altered. On the procedure:
(§3) Cells were exposed to the test agents in 10-cm dishes for 24 hours and then collected by scraping. The cell pellets were washed once with PBS, and then lysed at 4° C. over 30 min of incubation in a sodium dodecyl sulfate (SDS) lysis buffer containing 1% SDS, 50 mM Tris HCl (pH 8.1), 10 mM EDTA and […] protease inhibitor cocktail (Sigma-Aldrich). The cell debris was pelleted by centrifugation for 20 min at 14,000×g, and 1 μl of each supernatant was used for determination of protein concentration using a colorimetric bicinchoninic assay (Pierce, Rockford, Ill.). The remaining sample was added to equal volume of 2×SDS-polyacrylamide gel electrophoresis sample loading buffer (62.5 mM Tris-HCl, pH 6.8, 4% SDS, 5% β-mercaptoethanol, 20% glycerol, 0.1% bromophenol blue), followed by incubation in boiling water for 5 min. Equivalent amounts of total protein were resolved in SDS-polyacrylamide gels, and then transferred to nitrocellulose membranes using a semidry transfer cell. The transblotted membrane was washed twice with Tris-buffered saline containing 0.1% Tween 20 (TBST). After blocking with TBST containing 5% nonfat milk for 40 min, the membrane was incubated with the appropriate primary antibody (1:1000) in TBST-1% nonfat milk at 4° C. overnight. The membrane was then washed three times with TBST for a total of 15 min, followed by incubation with goat anti-rabbit or anti-mouse IgG-horseradish peroxidase conjugates (1:2000) for 1 hour at room temperature and four washes with TBST for a total of 1 hour. The immunoblots were visualized by enhanced chemiluminescence (GE Healthcare Life Sciences).
For orientation: Immunoblotting shows a protein as a band on a membrane.

In test [5] the test system is mTORC2 (mTOR, rictor, SGK, PKCα). As to the kind of experiment: Western blot of mTORC2 components and downstream targets. The format is cell-based. On the procedure:
as §3

In test [6] the target is T2, PH domain of Akt (GST-PH domain fusion protein) (Homo sapiens, UniProt P31749).
T2 construct: made in house
T2 sequence (P31749 5-108 limits assumed): as the sequence (P31749 5-108 Y38G limits assumed) above, with G34Y counted along it
As to the kind of experiment: Surface plasmon resonance binding, Akt PH domain. To be noted: SPR, wild-type PH domain; means (n = 3) ± SD; read-out: Kd, Akt PH domain.
Text: as §2
Binding experiments were performed using a Biacore T100 system (GE Healthcare, Piscataway, N.J.). The GST-PH domain fusion proteins were immobilized on a CM5 S Sensorchip using Biacore's Amine Coupling Kit to a level of 17,000 response units. VE5 compounds and di-octanoyl PIP3 at concentrations ranging from 0.1 to 100 μM and 1 to 20 μm, respectively, were injected at a high flow rate (30 μL/min) over the biosensor surface for binding analyses. DMSO concentrations in all samples and running buffer were 1% (v/v) or less. Data were analyzed using Biacore T100 Evaluation Software.

As a reminder, the Kd is the free concentration of one partner at which half of the binding sites on the other are occupied at equilibrium, for simple one-to-one binding. Regarding `Cc1c(C)c2c(c(C)c1O)CC[C@@](C)(CCCC(C)C)O2` [α-VE5, (R)-2,5,7,8-tetramethyl-2-(4-methylpentyl)-chroman-6-ol], the IC50 in test [1] was 10 µM; in test [3] it was 15 to 20 µM. Further, the Kd in test [2] was 0.48 ± 0.13 µM; in test [6], 3.4 µM. Moreover, the “potency relative to parent tocopherol” value in test [3] is on record as 50 fold; in test [3] (listed as a-VE5), 10 fold. For the same molecule, in test [4], the “effect on phosphorylation of Akt at Ser473” value is listed as “parallel reduction”. Further, the “abundance or phosphorylation of mTORC2 components and targets (mTOR, rictor, SGK, PKCα)” value in test [5] is “lack of changes”.

Consider `Cc1c(O)cc2c(c1C)O[C@](C)(CCCC(C)C)CC2` [γ-VE5, (R)-2,7,8-trimethyl-2-(4-methylpentyl)-chroman-6-ol], for which the figures for the IC50 in test [1] and in test [3] were 7 µM and 7 to 10 µM, respectively. Further, the Kd in test [2] was 0.49 ± 0.02 µM; in test [6], 0.9 ± 0.1 µM. Further, in test [4], the “effect on phosphorylation of Akt at Ser473” value is “parallel reduction”. Besides, the “abundance or phosphorylation of mTORC2 components and targets (mTOR, rictor, SGK, PKCα)” value in test [5] is listed as “lack of changes”.
